Structures are written as SMILES.

Test [1] deals with T1, cholecystokynin receptor (CCK-A) (Cavia porcellus, UniProt Q63931).
T1 construct: The experimental model used was the guinea pig gall bladder stimulated in vitro by CCK-8; from tissue; host or cells: guinea pig gall bladder in vitro
T1 sequence (Q63931 1-430): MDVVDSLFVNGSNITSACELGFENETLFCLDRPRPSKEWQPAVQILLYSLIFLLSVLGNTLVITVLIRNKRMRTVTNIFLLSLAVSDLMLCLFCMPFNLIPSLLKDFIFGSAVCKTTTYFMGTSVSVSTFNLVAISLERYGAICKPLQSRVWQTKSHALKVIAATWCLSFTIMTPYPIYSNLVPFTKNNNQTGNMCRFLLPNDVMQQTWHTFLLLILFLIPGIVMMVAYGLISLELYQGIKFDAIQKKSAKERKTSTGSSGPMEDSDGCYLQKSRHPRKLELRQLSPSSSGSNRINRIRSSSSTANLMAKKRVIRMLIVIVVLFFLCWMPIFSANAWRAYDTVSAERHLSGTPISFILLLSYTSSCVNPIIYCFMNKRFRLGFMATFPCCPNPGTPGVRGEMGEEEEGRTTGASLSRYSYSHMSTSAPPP
The test can be described thus: Anti-CCK-A activity, guinea pig gall bladder stimulated in vitro by CCK-8. As to conditions: selectivity CCK-B vs CCK-A. The text has this: The experimental model used was the guinea pig gall bladder stimulated in vitro by CCK-8 according to the method described by Makovec et al. [(Arzneim. Forsch/Drug. Res. 35 (7), 1048-1051 (1985)].

The subject of test [2] is acid secretion induced by pentagastrin. As to the kind of experiment: In vivo gastric anti-secretory activity in the anaesthetised rat, pentagastrin stimulation. How it is done: Gastric secretion was stimulated by pentagastrin and the method of Lai [Gut 5, (1964), 327-341] was used with slight modifications [Makovec et al, J.Med.Chem. 35 (1992), 28-38].
Pentagastrin dissolved in physiological saline was perfused for 120 minutes at a rate of 30 mcg/kg/h. After 60 minutes of perfusion (basal stimulation), the product to be tested was administered intravenously (I.V.) in bolus form, perfusion of the stimulant continuing for the remaining 60 minutes. The activity of the product was evaluated as the percentage reduction in acid secreted after the administration of the product with respect to the basal acidity measured in the first 60 minutes, during which time only pentagastrin was present.
The antagonists tested were administered at different doses in such a way as to enable the ID50 to be calculated, that is, the dose (in mg/kg I.V.) capable of inhibiting the effect of pentagastrin by 50%.

`Cc1cc(C)c(NC(=O)CC(CC(=O)O)c2cccc3ccccc23)c(C(=O)N2CCC3(CCCC3)CC2)c1` (stereo not shown) [Compound 4]: in test [1], the “affinity times higher for the gastrin receptor (CCK-B) than for the cholecystokynin receptor (CCK-A)” value is on record as “at least 300 times”. For the same molecule, in test [2] (ID50 comparison, rat I.V.), the “times more powerful than CR 2194” value is reported as 10-50 times and the “times more powerful than cimetidine” value was 2-10 times. Besides, the ED50 in test [2] (iv, I.V. bolus, rat, pentagastrin perfusion, read-out: Activity (ID50)) is 0.2 mg/kg.

These data come from patent publication US5922875A, “Aromatic acid diamides with antigastrin activity, a method for their preparation and their pharmaceutical use” (Rotta Research Laboratorium S.p.A., priority 1995, dated 1999).
